Results as given in patent US20210077567A1, “Targeted Angiotensin 1-7 Peptide Conjugates and Formation and Use Thereof” (IDAHO STATE UNIVERSITY, priority 2019, published 2021).
Marks after values point to notes of the source that are not given here.

Columns and labels:
[1] = tested on: cardiac ACE2, ACE and Mas receptor expression; assay: Cardiac RAS component expression in adjuvant-induced arthritis rats; format: in vivo; settings: for cardiac ACE2/ACE ratio: preventive treatment, FIG. 16, 17; for cardiac Mas receptor expression: treatment after establishment of inflammation, FIG. 18, 19
Protocol: (§1) On day one, for induction of adjuvant arthritis, male Sprague Dawley rats were injected at the tail base with 0.2 mL of 50 mg/mL Mycobacterium butyricum. Arthritic animals were divided into 4 groups and treated with saline, Ang II, Ang 1-7 or Ang peptide conjugate. A group of healthy rats received vehicle as control group. Preventive and treatment groups subcutaneously received 200 μg/kg equitant dose daily from day one for 3 weeks or after emergence of arthritis for 1 week, respectively. Animals were monitored daily for their body weight, paw and joint diameters. Animals were then euthanized, plasma/tissues were harvested and analyzed for plasma nitric oxide (NO), and the RAS components.

osteosarcoma tumors = assay: Osteosarcoma tumor-bearing mouse model, tumor size; format: in vivo, mice; settings: s.c. twice daily, equivalent dose of Ang 1-7 of 400 μg/kg, three weeks; FIG. 13
Protocol: The Ang peptide conjugate described in Example 1 was examined for inhibition of the RAS in an advanced form of osteosarcoma. For the in vivo study, a group of mice bearing osteosarcoma tumors was divided into three different groups and subcutaneously dosed twice daily with vehicle (PEG 400: normal Saline, 3:2), Ang 1-7, or Ang peptide conjugate (equivalent dose of Ang 1-7 of 400 μg/kg) for three weeks. The tumor size was measured three times a week. Tumor tissues were harvested and kept in appropriate medium in −80° C. for further analysis of different cancer biomarkers.

[2] = Pharmacokinetic study, plasma half-life; format: in vivo, rats
Protocol: (§2) Pharmacokinetic studies were conducted using rats for calculation of biological half-life and other pharmacokinetic parameters of the conjugates in comparison with native peptides. The tissue distribution of conjugates was conducted on main organs, such as bone (major target), heart, liver, kidney, lung, etc.

[3] = tested on: mRNA of RAS components (ACE, ACE2, AT1R, Mas receptor) in cancer cell line HSSY1; assay: Quantitative PCR of RAS component gene expression; format: cell-based; settings: FIG. 12
Excerpt: (§3) The viability of several different cancer cell lines including FUUR1, MoJo, SYO1, and the sarcoma cell line HSSY1 using the MTT assay across multiple concentrations and time points and compared with native Ang 1-7 as positive control and Ang II as negative control. The impact of Mas receptor activation by Ang peptide conjugate on gene expression of different components of the RAS, such as ACE1, ACE2, AT1R. Mas receptor was also studied using quantitative PCR using the different cancerous cell lines.

[4] = Stability of the conjugate in solution by HPLC-UV; format: physicochemical
Protocol: At 1, 3, 7, 10, 15, 30 days; 100 μL of the solutions were sampled and after adding stable Ang II as internal standard samples analyzed by HPLC-UV to monitor the stability of the conjugate over time. Table 3, below, provides the percent of the Ang peptide conjugate remaining in each sample after storage for 4 weeks.

[5] = tested on: adjuvant-induced arthritis; assay: Adjuvant-induced arthritis rat model (body weight, paw and joint diameters, plasma NO); format: in vivo, male Sprague Dawley rats; settings: for inflammation and swelling of paws and joints (in words): preventive and treatment groups; for Mean body weight (SD); body weight gain (%) compared with day 1 / Mean body weight (SD); body weight gain (%) after 7 days of dosing: inflamed animals
Protocol: as §1, with “The Ang peptide conjugate described in Example 1 was examined for anti-inflammatory effect on adjuvant-induced arthritis in a rat animal model. On” for “On”

[6] = tested on: FUUR1, MoJo, SYO1 and HSSY1 cancer cell lines; assay: MTT viability/proliferation assay on cancer cell lines (Example 2); format: cell-based; settings: all cell lines tested (FUUR1, MoJo, SYO1, HSSY1); multiple concentrations; FIG. 11
Excerpt: as §3

[7] = tested on: synovial sarcoma cell lines SYO1 and MoJo, renal carcinoma cell line FUUR1; assay: In vitro cell viability / anti-proliferative activity on cancer cell lines (Example 1); format: cell-based; settings: various concentrations, FIG. 6-8
Protocol: Upon confirmation of final chemical structure of the active conjugates, the anti-proliferative activity was tested using different cancer cell lines, including synovial sarcoma cell lines SYO1 and MoJo, and the renal carcinoma cell line FUUR1. Results comparing the percent viability of the tested cell lines upon incubation with AngII, Ang1-7, or the Ang peptide conjugate are provided in FIG. 6 (SYO1), FIG. 7 (MoJo) and FIG. 8 (FUUR1). The cell lines were incubated with concentrations of the tested materials at various concentrations, as shown.

[8] = Tissue distribution of radiolabeled peptides; format: in vivo; settings: rats, i.v. or s.c.; FIG. 9
Protocol: as §2

[9] = preventive arm, compared with day 1
[10] = treatment arm, after 7 days of dosing

Ang peptide conjugate: Ang 1-7 peptide bonded at N-terminus to 27-mer mono-disperse PEG(maleimide)2 spacer conjugated with a thiol-bisphosphonate
cardiac ACE2/ACE ratio [1]: restored this balance | cardiac Mas receptor expression [1]: restored this balance | tumor growth inhibition (osteosarcoma tumors): potently inhibited tumor growth after 3-4 days | increase in plasma half-life as compared to the native peptide ([2]; after intravenous administration): 10 fold | increase in half-life as compared to the native peptide ([2]; after subcutaneous injection): 15 fold | half-life compared with native peptides ([2]; rats, FIG. 10): longer half-life | ACE2 gene expression [3]: significantly higher | ACE gene expression [3]: enhanced to some level | AT1R gene expression [3]: enhanced to some level | Mas receptor gene expression [3]: significantly higher | percent of conjugate remaining ([4]; Acetate buffer (pH 5.5), 4 °C, 5 days): 98.4% | percent of conjugate remaining ([4]; Acetate buffer (pH 5.5), 4 °C, 28 days): 98.0% | percent of conjugate remaining ([4]; Acetate buffer (pH 5.5), 25 °C, 5 days): 94.3% | percent of conjugate remaining ([4]; Acetate buffer (pH 5.5), 25 °C, 28 days): 93.3% | percent of conjugate remaining ([4]; Acetate buffer (pH 5.5), −20 °C, 5 days): 99.8% | percent of conjugate remaining ([4]; Acetate buffer (pH 5.5), −20 °C, 28 days): 99.5% | percent of conjugate remaining ([4]; D. D. Water (pH 6.5), 4 °C, 5 days): 95.9% | percent of conjugate remaining ([4]; D. D. Water (pH 6.5), 4 °C, 28 days): 92.4% | percent of conjugate remaining ([4]; D. D. Water (pH 6.5), 25 °C, 5 days): 90.6% | percent of conjugate remaining ([4]; D. D. Water (pH 6.5), 25 °C, 28 days): 64.0% | percent of conjugate remaining ([4]; D. D. Water (pH 6.5), −20 °C, 5 days): 99.5% | percent of conjugate remaining ([4]; D. D. Water (pH 6.5), −20 °C, 28 days): 99.1% | percent of conjugate remaining ([4]; Phosphate buffer (pH 7.4), 4 °C, 5 days): 91.9% | percent of conjugate remaining ([4]; Phosphate buffer (pH 7.4), 4 °C, 28 days): 79.2% | percent of conjugate remaining ([4]; Phosphate buffer (pH 7.4), 25 °C, 5 days): 72.8% | percent of conjugate remaining ([4]; Phosphate buffer (pH 7.4), 25 °C, 28 days): 22.6% | percent of conjugate remaining ([4]; Phosphate buffer (pH 7.4), −20 °C, 5 days): 99.2% | percent of conjugate remaining ([4]; Phosphate buffer (pH 7.4), −20 °C, 28 days): 98.9% | inflammation and swelling of paws and joints (in words) [5]: reduced the inflammation and swelling to a comparable level with the control group | Difference vs. Inf- Vehicle in body weight gain (%) [5, 9]: 6.22% | Mean body weight (SD); body weight gain (%) compared with day 1 ([5]; preventive arm): 15.1 (12.0) % | plasma level of NO ([5]; preventive arm, 200 μg/kg s.c. daily from day one for 3 weeks, FIG. 14): reduce the elevated plasma level of NO | Difference vs. Inf- Vehicle in body weight gain (%) [5, 10]: 3.0% | Mean body weight (SD); body weight gain (%) after 7 days of dosing ([5]; treatment arm): 7.3 (4.3) * % | plasma level of NO ([5]; treatment arm, 200 μg/kg s.c. daily for 1 week after emergence of arthritis, FIG. 15): reduce the elevated plasma level of NO | effect on cell proliferation [6]: anti-proliferative effect was more pronounced | cell viability compared with native peptides [7]: superior activity | tissue distribution compared with native peptides [8]: higher affinity to thyroid and bone

Angiotensin 1-7 (DRVYIHP) [Ang 1-7, reference compound]
cardiac ACE2/ACE ratio [1]: restored this balance | cardiac Mas receptor expression [1]: restored this balance | tumor growth inhibition (osteosarcoma tumors): milder effect after 10 days | ACE2 gene expression [3]: did not significantly change | ACE gene expression [3]: very large effect | AT1R gene expression [3]: did not significantly change | Mas receptor gene expression [3]: did not significantly change | inflammation and swelling of paws and joints (in words) [5]: reduced the inflammation and swelling to a comparable level with the control group | Difference vs. Inf- Vehicle in body weight gain (%) [5, 9]: 4.78% | Mean body weight (SD); body weight gain (%) compared with day 1 ([5]; preventive arm): 13.6 (8.8) % | Difference vs. Inf- Vehicle in body weight gain (%) [5, 10]: 5.7% | Mean body weight (SD); body weight gain (%) after 7 days of dosing ([5]; treatment arm): 10.0 (4.8) * % | effect on cell proliferation [6]: significant concentration dependent decrease on cell proliferation

Angiotensin II (DRVYIHPF; Angiotensin-2; UniProt P01019 25-32, looked up) [Ang II, native Angiotensin II peptide, pro-inflammatory agent, negative control]
inflammation and swelling of paws and joints (in words) [5]: made the situation worse | Difference vs. Inf- Vehicle in body weight gain (%) [5, 9]: 4.32% | Mean body weight (SD); body weight gain (%) compared with day 1 ([5]; preventive arm): 13.2 (3.1) % | effect on cell proliferation [6]: remarkable proliferative effect
